Tests used:
[1] = tested on: opiate blocker; withdrawal symptoms; assay: Naltrexone given after the end of buprenorphine treatment (precipitated withdrawal)
Method: Since naltrexone is administered following the cessation of narcotic, there can be no residual narcotic in a patient's system, otherwise the naltrexone will push the patient into withdrawal. Therefore, the patient must wait about a week before to start naltrexone, even with extremely low doses, doses that may be considered to be homeopathic but are high enough to cause withdrawal symptoms if the narcotic is not fully washed out.

[2] = tested on: smoking cessation; conditions: very large reduction steps; cited from earlier work
[3] = tested on: physical dependence to opioids and related substances; assay: Multidose tapering of buprenorphine in opiate-dependent patients (cessation success, withdrawal symptoms); type: in vivo; conditions: for Successful, percent of total patients: calculated blood level reduction no greater than 5% from previous period
Excerpt: After several years of clinical experience in the use of buprenorphine, it became clear that a single dose in mg of buprenorphine given over a short period of time would not lead to a drug-free status. […]. If the dose is reduced rapidly, the patient reacts with both physical and emotional symptoms of withdrawal. By reducing the dose slowly, the patients experience a period where there is little or no decline in biologically available narcotic and thus feel more secure as they are not experiencing even minor withdrawal symptoms.
Commercially available buprenorphine (Suboxone® & Subutex®) is available in strengths of 8.0 mg as well as 2.0 mg. However, that these medications would not suffice for a successful program, because the 2.0 mg dose was too large and too steep cut-off. […]. During inception of development of multidose treatment that led to the current invention, and using the then current state of art, buprenorphine troches for the treatment (not maintenance) of opiate dependence was used on a patient that was a person who was using I.V. 5-8 bags of heroin daily. They were started on 3 mg of buprenorphine and remained on this dose for three days. After a two day period without opiates, an attempt was made to administer the opiate blocker naltrexone which was intended to assure that a person is indeed drug free and remained so.
Many alterations in treatment protocols to prevent withdrawal were made. The alterations included a greater variety of doses ranging from 8.0 to 4.0 mg administered in a deceasing amount over time. At first the dose strengths varied from 8.0 mg administered once daily with a daily reduction of 2.0 mg until to 4.0 mg, and then to 2.0 mg.
A 6.0 mg dose was then added to the protocol. This lengthened the withdrawal period from three days to seven. This change was occasioned by the observation that the drop from 8.0 mg to 4.0 mg was all too frequently accompanied by a significant return of withdrawal symptoms and, at times, a return to use.
Despite these alterations in the treatment protocol the results were still not what were expected. The observation was made that a cut-off of 2.0 mg would cause a return of withdrawal symptoms within 24 hrs and thus the likelihood of a return to drug use before naltrexone could be started. […] As a result, a 1.0 mg lozenges were administered
A fractional buprenorphine dose was administered to reduce the severity of withdrawal symptoms. This strategy was in response to ongoing withdrawal symptoms following the “conclusion” of withdrawal or a “final” 3.0 mg dose of buprenorphine. To mitigate the withdrawal symptoms, a dose of 1.5 mg of buprenorphine was given to the patient. This particular treatment was unsuccessful as the ongoing withdrawal symptoms were too difficult for the patient who relapsed as a result.
Stepwise increments were amended to proceed in the sub 1.0 mg dose range. The taper at this time was 1.0 mg, 0.75 mg, 0.5 mg, to 0.25 mg then a four day period of blank troches followed by an upward taper of troches with naltrexone going from 0.5 mg of naltrexone to 10.0 mg of naltrexone. With serial doses of 0.25 mg of buprenorphine many patients continued to report perceptible and, in some cases, intolerable withdrawal symptoms.
As a result of the ongoing objective patient observations and patient's subjective complaints of withdrawal symptoms, a 0.1 mg dose was introduced. Additionally, a dose of 1.5 mg as well as a dose of 0.75 mg was added to the dose progression series. Although withdrawal complaints were limited, they were still present, and generally in the late phases of treatment. […] A strategy of 0.1 mg decreases in dose was implemented when the patients reached the 4.0 mg dose range (i.e., 2.0 mg twice a day) and 0.01 mg deceases in the below 1.0 mg range. The effect of this change also to extended the withdrawal period to about six to eight weeks from four weeks. […]

O=C1CC[C@@]2(O)[C@H]3Cc4ccc(O)c5c4[C@@]2(CCN3CC2CC2)[C@H]1O5 [naltrexone]
withdrawal symptoms caused by naltrexone ([1]; 12.5 mg, up to five days after the end of buprenorphine treatment): causes a return of withdrawal symptoms
withdrawal symptoms caused by naltrexone ([1]; given after a two day period without opiates following 3 mg buprenorphine for three days): severe withdrawal symptoms

CN1CCCC1c1cccnc1 (stereo not shown) [nicotine]
clinical success rates over placebo [2]: 6-12%

buprenorphine hydrochloride
Successful, percent of total patients ([3]; 1-30 treatment days): 50.7%
Successful, number of patients ([3]; 1-30 treatment days, total 75): 38
Successful, percent of total patients ([3]; 31-60 treatment days): 75.0%
Successful, number of patients ([3]; 31-60 treatment days, total 52): 39
Successful, percent of total patients ([3]; 61-90 treatment days): 90.5%
Successful, number of patients ([3]; 61-90 treatment days, total 21): 19
success rates in achieving freedom from physical dependence to opioids and related substances ([3]; specific gradually decreasing but measured doses of replacement narcotic): ≥ 90%

Reference: US8163731B2, “Method and dosage regimens for eliminating a chemical substance in blood” (Rhodes Technologies, priority 2008, dated 2012)
